Reference: patent US5610303A, “Arylamino pyrimidine compound” (Ube Industries, Ltd., priority 1992, dated 1997)

Legend:
Assay type in all cases: biochemical
butyrylcholinesterase = biological target: T1, butyrylcholinesterase (Rattus norvegicus, UniProt Q9JKC1); assay: Butyrylcholinesterase-inhibiting activity (Test example 2; rat serum, modified Ellman method)
T1 construct: As an enzyme source, a rat serum was used; from tissue; host or cells: rat serum
Procedure: Butyrylcholinesterase-inhibiting activity
As an enzyme source, a rat serum was used.
The activity of butyrylcholinesterase was measured by a partially modified method of the above method of Ellman et. al. That is, to the rat serum suitably diluted with a 0.1M phosphate buffer were added each compound to be tested, DTNB and butyrylthiocholine as a substrate, and the mixture was incubated at 25° C. for a predetermined time.
(§1) Enzyme activity-inhibiting rates were calculated from absorbances in the presence of the compounds to be tested having various concentrations based on absorbances in the absence of the compounds to be tested, with absorbance when reaction was carried out in the absence of the substrate being defined as blank. IC50 values were calculated by Hill analysis.

acetylcholinesterase = biological target: T2, acetylcholinesterase (Rattus norvegicus, UniProt P37136); assay: Acetylcholinesterase-inhibiting activity (Test example 1; crude synaptosome fraction of rat cerebrum, modified Ellman method)
T2 construct: a crude synaptosome fraction of a rat cerebrum was used; from tissue; host or cells: rat cerebrum, crude synaptosome fraction
Procedure: Acetylcholinesterase-inhibiting activity
As an enzyme source, a crude synaptosome fraction of a rat cerebrum was used.
That is, to the crude synaptosome fraction of the rat cerebrum suitably diluted with a 0.1M phosphate buffer were added each compound to be tested, 5,5'-dithiobis(2-nitrobenzoic acid) (hereinafter referred to as DTNB) and acetylthiocholine as a substrate, and the mixture was incubated at 25° C. for a predetermined time.
as §1

A type monoamine oxidase = biological target: T3, A type monoamine oxidase (Rattus norvegicus, UniProt P21396); assay: A type monoamine oxidase-inhibiting activity (Test example 3; rat cerebrum homogenate, 14C-5-HT substrate); settings: 5-HT 200 μM, preincubated 37° C. 30 minutes, Hill analysis, read-out: IC50 value, Inhibition of A type monoamine oxidase
T3 construct: a rat cerebrum homogenized in a 0.1M phosphate buffer was used; from tissue; host or cells: rat cerebrum homogenate
T3 sequence (P21396 1-526): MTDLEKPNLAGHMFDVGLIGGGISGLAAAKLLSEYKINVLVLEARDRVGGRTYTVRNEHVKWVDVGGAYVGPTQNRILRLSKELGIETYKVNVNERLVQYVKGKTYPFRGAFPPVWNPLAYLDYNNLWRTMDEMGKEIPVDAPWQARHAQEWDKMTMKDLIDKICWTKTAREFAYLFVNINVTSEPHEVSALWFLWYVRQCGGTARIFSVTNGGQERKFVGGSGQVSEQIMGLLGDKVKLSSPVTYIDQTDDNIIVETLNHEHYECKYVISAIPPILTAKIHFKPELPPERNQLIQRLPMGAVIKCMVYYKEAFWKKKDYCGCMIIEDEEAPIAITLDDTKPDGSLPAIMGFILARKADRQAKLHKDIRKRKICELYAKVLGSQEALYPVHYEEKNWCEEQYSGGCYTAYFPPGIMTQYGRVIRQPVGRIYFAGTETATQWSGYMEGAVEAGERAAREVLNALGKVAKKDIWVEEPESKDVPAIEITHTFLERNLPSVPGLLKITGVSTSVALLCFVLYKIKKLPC
Procedure: (§2) A type and B type monoamine oxidase-inhibiting activity
(§3) As an enzyme source, a rat cerebrum homogenized in a 0.1M phosphate buffer was used.
(§4) That is, the rat cerebrum homogenate suitably diluted with a 0.1M phosphate buffer and each compound to be tested were preincubated at 37° C. for 30 minutes. […] After the mixture was separated into two layers by centrifugation, a part of the organic layer was mixed with liquid scintillation cocktail. Radioactivity extracted into the organic layer was measured by a liquid scintillation counter to calculate the enzyme activity.
as §1, with “Inhibiting” for “Enzyme activity-inhibiting”, “enzyme activities” for “absorbances”, “homogenate” for “substrate”

B type monoamine oxidase = biological target: T4, B type monoamine oxidase (Rattus norvegicus, UniProt P19643); assay: B type monoamine oxidase-inhibiting activity (Test example 3; rat cerebrum homogenate, 14C-β-PEA substrate); settings: β-PEA 20 μM, preincubated 37° C. 30 minutes, Hill analysis, read-out: IC50 value, Inhibition of B type monoamine oxidase
T4 construct: a rat cerebrum homogenized in a 0.1M phosphate buffer was used; from tissue; host or cells: rat cerebrum homogenate
T4 sequence (P19643 1-520): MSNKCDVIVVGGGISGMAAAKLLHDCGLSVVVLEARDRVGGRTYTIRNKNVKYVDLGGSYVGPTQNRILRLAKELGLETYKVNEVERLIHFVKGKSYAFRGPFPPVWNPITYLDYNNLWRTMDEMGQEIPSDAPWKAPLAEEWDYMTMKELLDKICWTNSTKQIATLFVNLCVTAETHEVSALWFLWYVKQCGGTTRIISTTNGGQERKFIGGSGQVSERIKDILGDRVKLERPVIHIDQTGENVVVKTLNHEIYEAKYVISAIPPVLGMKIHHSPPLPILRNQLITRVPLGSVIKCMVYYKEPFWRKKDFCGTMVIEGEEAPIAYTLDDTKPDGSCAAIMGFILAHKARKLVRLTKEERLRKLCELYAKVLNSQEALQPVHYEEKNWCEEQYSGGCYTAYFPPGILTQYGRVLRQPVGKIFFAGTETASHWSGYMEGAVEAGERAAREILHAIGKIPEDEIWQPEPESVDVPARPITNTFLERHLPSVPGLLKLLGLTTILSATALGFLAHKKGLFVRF
Procedure: as §2, §3, §4
as §1, with “Inhibiting” for “Enzyme activity-inhibiting”, “enzyme activities” for “absorbances”, “homogenate” for “substrate”

T2 sequence (P37136 32-614): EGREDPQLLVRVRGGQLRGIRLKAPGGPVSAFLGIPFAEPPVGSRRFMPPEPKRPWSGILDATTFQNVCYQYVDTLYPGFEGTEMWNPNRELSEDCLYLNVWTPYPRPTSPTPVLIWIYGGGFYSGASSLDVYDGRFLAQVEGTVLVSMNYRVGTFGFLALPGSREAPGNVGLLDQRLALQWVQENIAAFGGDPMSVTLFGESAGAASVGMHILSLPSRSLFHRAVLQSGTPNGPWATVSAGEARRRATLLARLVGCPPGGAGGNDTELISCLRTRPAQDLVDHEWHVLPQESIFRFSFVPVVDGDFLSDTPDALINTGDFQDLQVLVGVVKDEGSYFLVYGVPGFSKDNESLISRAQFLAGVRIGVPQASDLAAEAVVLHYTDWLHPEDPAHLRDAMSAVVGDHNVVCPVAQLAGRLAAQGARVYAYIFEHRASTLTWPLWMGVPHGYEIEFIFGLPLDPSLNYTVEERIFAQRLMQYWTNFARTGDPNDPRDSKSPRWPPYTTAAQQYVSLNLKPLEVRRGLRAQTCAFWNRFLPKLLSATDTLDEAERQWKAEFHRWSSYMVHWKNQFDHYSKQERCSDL
T1 sequence (Q9JKC1 24-597): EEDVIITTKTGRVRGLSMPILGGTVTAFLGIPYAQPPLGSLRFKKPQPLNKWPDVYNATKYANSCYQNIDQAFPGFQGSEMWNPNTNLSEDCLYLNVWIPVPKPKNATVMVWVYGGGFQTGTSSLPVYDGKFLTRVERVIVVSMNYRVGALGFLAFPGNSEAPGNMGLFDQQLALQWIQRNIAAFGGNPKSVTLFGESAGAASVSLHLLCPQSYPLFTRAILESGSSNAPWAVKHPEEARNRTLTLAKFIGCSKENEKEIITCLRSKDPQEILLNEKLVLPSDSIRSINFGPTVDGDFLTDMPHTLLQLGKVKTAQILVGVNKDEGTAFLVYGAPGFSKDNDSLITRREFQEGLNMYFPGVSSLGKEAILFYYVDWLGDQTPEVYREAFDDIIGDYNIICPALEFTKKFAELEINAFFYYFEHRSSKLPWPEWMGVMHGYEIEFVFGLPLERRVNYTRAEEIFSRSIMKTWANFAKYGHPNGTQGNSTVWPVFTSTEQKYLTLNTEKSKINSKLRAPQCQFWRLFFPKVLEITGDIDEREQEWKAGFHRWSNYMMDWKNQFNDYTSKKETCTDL

Question: With `N#Cc1ccc(Nc2ncnc3c2CCC3)cc1` [Compound B, 4-(4-cyanoanilino)-5,6-dihydro-7H-cyclopenta[d]pyrimidine, reference compound] as the molecule, how does the IC50 (butyrylcholinesterase) read?
Answer: > 10 µM

Question: What about the IC50 (acetylcholinesterase) of the same molecule?
Answer: > 10 µM

Question: And the IC50 (A type monoamine oxidase)?
Answer: 0.16 µM

Question: And the IC50 (B type monoamine oxidase)?
Answer: > 10 µM

Question: Which IC50 (butyrylcholinesterase) does the source give for `O=C1C(=CC2CCN(Cc3ccccc3)CC2)Cc2cc(Nc3ncnc4c3CCC4)ccc21` [Example 21, 4-[1-Oxo-2-(1-benzylpiperidin-4-yl)methyleneindan-5-yl]amino-5,6-dihydro-7H-cyclopenta[d]pyrimidine] here?
Answer: > 10 µM

Question: And the IC50 (acetylcholinesterase)?
Answer: 0.02 µM

Question: What about the IC50 (A type monoamine oxidase) of the same molecule?
Answer: 0.6 µM

Question: What about the IC50 (B type monoamine oxidase) of the same molecule?
Answer: > 10 µM

Question: Which results are given for `O=C(/C=C/C1CCN(Cc2ccccc2)CC1)c1ccc(Nc2ncnc3c2CCCC3)cc1` [Example 9, (E)-N-(5,6,7,8-tetrahydroquinazolin-4-yl)-4-[3-(1-benzylpiperidin-4-yl)propenoyl]aniline]?
Answer: IC50 (butyrylcholinesterase): > 10 µM; IC50 (acetylcholinesterase): 0.0014 µM; IC50 (A type monoamine oxidase): 1.4 µM; IC50 (B type monoamine oxidase): > 10 µM

Question: Which results are given for `O=C1c2ccc(Nc3ncnc4c3CCC4)cc2CC1CC1CCN(Cc2ccccc2)CC1` (stereo not drawn) [Example 22, 4-[1-Oxo-2-(1-benzylpiperidin-4-yl)methylindan-5-yl]amino-5,6-dihydro-7H-cyclopenta[d]pyrimidine]?
Answer: IC50 (butyrylcholinesterase): > 10 µM; IC50 (acetylcholinesterase): 0.0073 µM; IC50 (A type monoamine oxidase): 0.81 µM; IC50 (B type monoamine oxidase): > 10 µM

Question: Which IC50 (butyrylcholinesterase) does the source give for `O=C(CC1CCN(Cc2ccccc2)CC1)c1ccc(Nc2ncnc3c2CCC3)cc1` [Example 26, N-(5,6-dihydro-7H-cyclopenta[d]pyrimidin-4-yl)-4-[(1-benzylpiperidin-4-yl)acetyl]aniline] here?
Answer: > 10 µM

Question: What about the IC50 (acetylcholinesterase) of the same molecule?
Answer: 0.15 µM

Question: And the IC50 (A type monoamine oxidase)?
Answer: 0.056 µM

Question: And the IC50 (B type monoamine oxidase)?
Answer: > 10 µM

Question: How did the IC50 (butyrylcholinesterase) turn out when `O=C(/C=C/C1CCN(Cc2ccccc2)CC1)c1ccc(Nc2ncnc3c2CCC3)cc1` [Example 6, (E)-N-(5,6-dihydro-7H-cyclopenta[d]pyrimidin-4-yl)-4-[3-(1-benzylpiperidin-4-yl)propenoyl]aniline] was run?
Answer: > 10 µM

Question: And the IC50 (acetylcholinesterase)?
Answer: 0.0031 µM

Question: And the IC50 (A type monoamine oxidase)?
Answer: 0.22 µM

Question: What about the IC50 (B type monoamine oxidase) of the same molecule?
Answer: > 10 µM

Question: Which IC50 (butyrylcholinesterase) does the source give for `Cc1ncnc(Nc2ccc(C(=O)/C=C/C3CCN(Cc4ccccc4)CC3)cc2)c1C` [Example 1, (E)-N-(5,6-dimethylpyrimidin-4-yl)-4-[3-(1-benzyl-piperidin-4-yl)propenoyl]aniline] here?
Answer: > 10 µM

Question: What about the IC50 (acetylcholinesterase) of the same molecule?
Answer: 0.0033 µM

Question: And the IC50 (A type monoamine oxidase)?
Answer: 1.6 µM

Question: And the IC50 (B type monoamine oxidase)?
Answer: > 10 µM

Question: For `O=C(CC1CCN(Cc2cccs2)CC1)c1ccc(Nc2ncnc3c2CCC3)cc1` [Example 87, N-(5,6-dihydro-7H-cyclopenta-[d]pyrimidin-4-yl)-4-{[1-(2-thienylmethyl)piperidin-4-yl]-acetyl}aniline], which IC50 (butyrylcholinesterase) is on record?
Answer: > 10 µM

Question: What about the IC50 (acetylcholinesterase) of the same molecule?
Answer: 0.27 µM

Question: And the IC50 (A type monoamine oxidase)?
Answer: 0.035 µM

Question: And the IC50 (B type monoamine oxidase)?
Answer: > 10 µM

Question: Which IC50 (butyrylcholinesterase) does the source give for `O=C(CCC1CCN(Cc2ccccn2)CC1)c1ccc(Nc2ncnc3c2CCC3)cc1` [Example 53, N-(5,6-dihydro-7H-cyclopenta-[d]pyrimidin-4-yl)-4-{3-[1-(2-pyridylmethyl)piperidin-4-yl]-propanoyl}aniline] here?
Answer: > 10 µM

Question: And the IC50 (acetylcholinesterase)?
Answer: 0.017 µM

Question: And the IC50 (A type monoamine oxidase)?
Answer: 0.085 µM

Question: And the IC50 (B type monoamine oxidase)?
Answer: > 10 µM

Question: With `CCc1cncnc1Nc1ccc(C(=O)CC2CCN(Cc3ccccc3)CC2)cc1` [Example 93, N-(5-ethylpyrimidin-4-yl)-4-[(1-benzylpiperidin-4-yl)-acetyl]aniline] as the molecule, how does the IC50 (butyrylcholinesterase) read?
Answer: > 10 µM

Question: And the IC50 (acetylcholinesterase)?
Answer: 0.2 µM

Question: And the IC50 (A type monoamine oxidase)?
Answer: 0.42 µM

Question: And the IC50 (B type monoamine oxidase)?
Answer: 7.2 µM

Question: How did the IC50 (butyrylcholinesterase) turn out when `Cc1cncnc1Nc1ccc(C(=O)CC2CCN(Cc3cccs3)CC2)cc1` [Example 88, N-(5-methylpyrimidin-4-yl)-4-{[1-(2-thienylmethyl)piperidin-4-yl]acetyl}aniline] was run?
Answer: > 10 µM

Question: What about the IC50 (acetylcholinesterase) of the same molecule?
Answer: 0.33 µM

Question: What about the IC50 (A type monoamine oxidase) of the same molecule?
Answer: 0.25 µM

Question: What about the IC50 (B type monoamine oxidase) of the same molecule?
Answer: 2.1 µM

Question: How did the IC50 (butyrylcholinesterase) turn out when `Cc1ncnc(Nc2ccc(C(=O)CCC3CCN(Cc4ccccc4)CC3)cc2)c1C` [Example 2, N-(5,6-dimethylpyrimidin-4-yl)-4-[3-(1-benzylpiperidin-4-yl)propanoyl]aniline] was run?
Answer: > 10 µM

Question: What about the IC50 (acetylcholinesterase) of the same molecule?
Answer: 0.0036 µM

Question: And the IC50 (A type monoamine oxidase)?
Answer: 0.89 µM

Question: What about the IC50 (B type monoamine oxidase) of the same molecule?
Answer: > 10 µM

Question: With `O=C(CCC1CCN(Cc2ccccc2)CC1)c1ccc(Nc2ncnc3c2CCC3)cc1` [Example 8, N-(5,6-dihydro-7H-cyclopenta[d]pyrimidin-4-yl)-4-[3(1-benzylpiperidin-4-yl)propanoyl]aniline. 2HCl] as the molecule, how does the IC50 (butyrylcholinesterase) read?
Answer: > 10 µM

Question: What about the IC50 (acetylcholinesterase) of the same molecule?
Answer: 0.002 µM

Question: And the IC50 (A type monoamine oxidase)?
Answer: 0.085 µM

Question: What about the IC50 (B type monoamine oxidase) of the same molecule?
Answer: > 10 µM

Question: Which results are given for `O=C(CCC1CCN(Cc2ccccc2)CC1)c1ccc(Nc2ncnc3c2CCCC3)cc1` [Example 10, N-(5,6,7,8-tetrahydroquinazolin-4-yl)-4-[3-(1-benzyl-piperidin-4-yl)propanoyl]aniline]?
Answer: IC50 (butyrylcholinesterase): > 10 µM; IC50 (acetylcholinesterase): 0.0011 µM; IC50 (A type monoamine oxidase): 0.32 µM; IC50 (B type monoamine oxidase): > 10 µM

Question: What does the source list for `Cc1cncnc1Nc1ccc(C(=O)CC2CCN(Cc3ccccc3)CC2)cc1` [Example 25, N-(5-methylpyrimidin-4-yl)-4-[(1-benzylpiperidin-4-yl)acetyl]aniline]?
Answer: IC50 (butyrylcholinesterase): > 10 µM; IC50 (acetylcholinesterase): 0.25 µM; IC50 (A type monoamine oxidase): 0.34 µM; IC50 (B type monoamine oxidase): 6.8 µM
